The source of these data is US10858335B2 (Rigel Pharmaceuticals, Inc., priority 2014, dated 2020).

Each structure is given as a SMILES string.

The subject of this experiment is GDF8 signaling (p-SMAD-3 (Ser423/425)). Put plainly: AlphaScreen SureFire SMAD3 (p-Ser423/425) assay, GDF8-stimulated cells (GDF pSMAD). It is filed as cell-based. Conditions: Mus musculus, MPC-11, MPC11; GDF8-stimulated; p-SMAD3 AlphaScreen; read-out: GDF pSMAD (MPC11) (inhibition of GDF8 signaling). On the technique in general: Bead proximity is the source of the signal in Alpha formats.
As to `Cc1cc(-c2ncccc2-c2ccc3ncc(N(C)C)n3c2)ccc1F` [compound 551, 6-(2-(4-Fluoro-3-methylphenyl)pyridin-3-yl)-N,N-dimethylimidazo[1,2-a]pyridin-3-amine], the IC50 is 4880 nM.
For `Cc1cccc(-c2ncccc2-c2ccc3ncc(N(C)C)n3c2)c1` [compound 552, N,N-Dimethyl-6-(2-(m-tolyl)pyridin-3-yl)imidazo[1,2-a]pyridin-3-amine], the IC50 amounted to 4060 nM.
Take `CN(C)c1cnc2ccc(-c3cccnc3-c3cccc(C4CC4)c3)cn12` [compound 553, 6-(2-(3-Cyclopropylphenyl)pyridin-3-yl)-N,N-dimethylimidazo[1,2-a]pyridin-3-amine]: the IC50 stood at 3240 nM.
Then `CN(C)c1cnc2ccc(-c3cccnc3-c3cccc(C(F)(F)F)c3)cn12` [compound 554, N,N-Dimethyl-6-(2-(3-(trifluoromethyl)phenyl)pyridin-3-yl)imidazo[1,2-a]pyridin-3-amine], with 4680 nM; and `Cc1cc(-c2ncccc2-c2ccc3ncc(C(F)(F)F)n3c2)ccc1F` [compound 555, 6-(2-(4-Fluoro-3-methylphenyl)pyridin-3-yl)-3-(trifluoromethyl)imidazo[1,2-a]pyridine], with 156 nM; and `FC(F)(F)c1cnc2ccc(-c3cccnc3-c3cccc(C4CC4)c3)cn12` [compound 556, 6-(2-(3-Cyclopropylphenyl)pyridin-3-yl)-3-(trifluoromethyl)imidazo[1,2-a]pyridine], with 363 nM.
In the case of `Cc1cc(-c2ncccc2-c2ccc3ncc(C#N)n3c2)ccc1F` [compound 557, 6-(2-(4-Fluoro-3-methylphenyl)pyridin-3-yl)imidazo[1,2-a]pyridine-3-carbonitrile], the IC50 amounted to 439 nM.
Regarding `Cc1cccc(-c2ncccc2-c2ccc3ncc(C#N)n3c2)c1` [compound 558, 6-(2-(m-Tolyl)pyridin-3-yl)imidazo[1,2-a]pyridine-3-carbonitrile], the IC50 amounted to 188 nM.
`N#Cc1cnc2ccc(-c3cccnc3-c3cccc(C4CC4)c3)cn12` [compound 559, 6-(2-(3-Cyclopropylphenyl)pyridin-3-yl)imidazo[1,2-a]pyridine-3-carbonitrile]: the IC50 turned out to be 162 nM.
As for `N#Cc1cnc2ccc(-c3cccnc3-c3cccc(C(F)(F)F)c3)cn12` [compound 560, 6-(2-(3-(Trifluoromethyl)phenyl)pyridin-3-yl)imidazo[1,2-a]pyridine-3-carbonitrile], the IC50 was 2480 nM.
For the compound `Cc1cc(-c2ncccc2-c2ccc3ncc(N4CCCC4)n3c2)ccc1F` [compound 561, 6-(2-(4-Fluoro-3-methylphenyl)pyridin-3-yl)-3-(pyrrolidin-1-yl)imidazo[1,2-a]pyridine], the IC50 came out at 11000 nM.
With `Cc1cccc(-c2ncccc2-c2ccc3ncc(N4CCCC4)n3c2)c1` [compound 562, 3-(Pyrrolidin-1-yl)-6-(2-(m-tolyl)pyridin-3-yl)imidazo[1,2-a]pyridine], the IC50 is 9780 nM.
`c1cc(-c2ncccc2-c2ccc3ncc(N4CCCC4)n3c2)cc(C2CC2)c1` [compound 563, 6-(2-(3-Cyclopropylphenyl)pyridin-3-yl)-3-(pyrrolidin-1-yl)imidazo[1,2-a]pyridine]: the IC50 is 5200 nM.
As to `FC(F)(F)c1cccc(-c2ncccc2-c2ccc3ncc(N4CCCC4)n3c2)c1` [compound 564, 3-(Pyrrolidin-1-yl)-6-(2-(3-(trifluoromethyl)phenyl)pyridin-3-yl)imidazo[1,2-a]pyridine], the IC50 is 18400 nM.
Turning to `Cc1cc(-c2ncccc2-c2ccc3ncc(CO)n3c2)ccc1F` [compound 565, (6-(2-(4-Fluoro-3-methylphenyl)pyridin-3-yl)imidazo[1,2-a]pyridin-3-yl)methanol], the IC50 stood at 406 nM.
On to `Cc1cccc(-c2ncccc2-c2ccc3ncc(CO)n3c2)c1` [compound 566, (6-(2-(m-Tolyl)pyridin-3-yl)imidazo[1,2-a]pyridin-3-yl)methanol], for which the IC50 came to 342 nM.
Then `OCc1cnc2ccc(-c3cccnc3-c3cccc(C4CC4)c3)cn12` [compound 567, (6-(2-(3-Cyclopropylphenyl)pyridin-3-yl)imidazo[1,2-a]pyridin-3-yl)methanol], with 225 nM.
In the case of `OCc1cnc2ccc(-c3cccnc3-c3cccc(C(F)(F)F)c3)cn12` [compound 568, (6-(2-(3-(Trifluoromethyl)phenyl)pyridin-3-yl)imidazo[1,2-a]pyridin-3-yl)methanol], the IC50 turned out to be 674 nM.
The value for `Cc1cc(-c2ncccc2-c2ccc3ncc(CN4CCOCC4)n3c2)ccc1F` [compound 569, 4-((6-(2-(4-Fluoro-3-methylphenyl)pyridin-3-yl)imidazo[1,2-a]pyridin-3-yl)methyl)morpholine] was 5410 nM; that for `Cc1cccc(-c2ncccc2-c2ccc3ncc(CN4CCOCC4)n3c2)c1` [compound 570, 4-((6-(2-(m-Tolyl)pyridin-3-yl)imidazo[1,2-a]pyridin-3-yl)methyl)morpholine] was 5900 nM.
Take `c1cc(-c2ncccc2-c2ccc3ncc(CN4CCOCC4)n3c2)cc(C2CC2)c1` [compound 571, 4-((6-(2-(3-Cyclopropylphenyl)pyridin-3-yl)imidazo[1,2-a]pyridin-3-yl)methyl)morpholine]: the IC50 is 7310 nM.
Turning to `COc1cc(NC(=O)c2cnc3ccc(-c4cccnc4-c4ccc(F)c(C)c4)cn23)cc(OC)c1OC` [compound 573, 6-(2-(4-Fluoro-3-methylphenyl)pyridin-3-yl)-N-(3,4,5-trimethoxyphenyl)imidazo[1,2-a]pyridine-3-carboxamide], the IC50 is 1210 nM.
`COc1cc(NC(=O)c2cnc3ccc(-c4cccnc4-c4cccc(C)c4)cn23)cc(OC)c1OC` [compound 574, 6-(2-(m-Tolyl)pyridin-3-yl)-N-(3,4,5-trimethoxyphenyl)imidazo[1,2-a]pyridine-3-carboxamide]: the IC50 is 853 nM.
Consider `COc1cc(NC(=O)c2cnc3ccc(-c4cccnc4-c4cccc(C5CC5)c4)cn23)cc(OC)c1OC` [compound 575, 6-(2-(3-Cyclopropylphenyl)pyridin-3-yl)-N-(3,4,5-trimethoxyphenyl)imidazo[1,2-a]pyridine-3-carboxamide], for which the IC50 amounted to 1170 nM.
The value for `COc1cc(NC(=O)c2cnc3ccc(-c4cccnc4-c4cccc(C(F)(F)F)c4)cn23)cc(OC)c1OC` [compound 576, 6-(2-(3-(Trifluoromethyl)phenyl)pyridin-3-yl)-N-(3,4,5-trimethoxyphenyl)imidazo[1,2-a]pyridine-3-carboxamide] was 3690 nM; that for `COc1cc(-c2cnc3ccc(-c4cccnc4-c4cccc(C)c4)cn23)cc(OC)c1OC` [compound 578, 6-(2-(m-Tolyl)pyridin-3-yl)-3-(3,4,5-trimethoxyphenyl)imidazo[1,2-a]pyridine] was 2230 nM; that for `Cc1cc(-c2ncccc2-c2ccc3ncc(C(=O)O)n3c2)ccc1F` [compound 579, 6-(2-(4-Fluoro-3-methylphenyl)pyridin-3-yl)imidazo[1,2-a]pyridine-3-carboxylic acid] was 12400 nM.
Consider `Cc1cc(-c2ncccc2-c2ccc3ncc(C(=O)N4CCOCC4)n3c2)ccc1F` [compound 580, (6-(2-(4-Fluoro-3-methylphenyl)pyridin-3-yl)imidazo[1,2-a]pyridin-3-yl)(morpholino)methanone], for which the IC50 turned out to be 8460 nM.
